In patent US7674819B2 (Warner-Lambert Company LLC, priority 2005, dated 2010) one finds IC50 data, which are given here for 24 compounds.

Structures are written as SMILES.

A word on the IC50: it is the point on the concentration scale where inhibition reaches its midpoint.

In one assay the target is T1, hAR (Homo sapiens, UniProt P10275).
T1 sequence (P10275 1-920): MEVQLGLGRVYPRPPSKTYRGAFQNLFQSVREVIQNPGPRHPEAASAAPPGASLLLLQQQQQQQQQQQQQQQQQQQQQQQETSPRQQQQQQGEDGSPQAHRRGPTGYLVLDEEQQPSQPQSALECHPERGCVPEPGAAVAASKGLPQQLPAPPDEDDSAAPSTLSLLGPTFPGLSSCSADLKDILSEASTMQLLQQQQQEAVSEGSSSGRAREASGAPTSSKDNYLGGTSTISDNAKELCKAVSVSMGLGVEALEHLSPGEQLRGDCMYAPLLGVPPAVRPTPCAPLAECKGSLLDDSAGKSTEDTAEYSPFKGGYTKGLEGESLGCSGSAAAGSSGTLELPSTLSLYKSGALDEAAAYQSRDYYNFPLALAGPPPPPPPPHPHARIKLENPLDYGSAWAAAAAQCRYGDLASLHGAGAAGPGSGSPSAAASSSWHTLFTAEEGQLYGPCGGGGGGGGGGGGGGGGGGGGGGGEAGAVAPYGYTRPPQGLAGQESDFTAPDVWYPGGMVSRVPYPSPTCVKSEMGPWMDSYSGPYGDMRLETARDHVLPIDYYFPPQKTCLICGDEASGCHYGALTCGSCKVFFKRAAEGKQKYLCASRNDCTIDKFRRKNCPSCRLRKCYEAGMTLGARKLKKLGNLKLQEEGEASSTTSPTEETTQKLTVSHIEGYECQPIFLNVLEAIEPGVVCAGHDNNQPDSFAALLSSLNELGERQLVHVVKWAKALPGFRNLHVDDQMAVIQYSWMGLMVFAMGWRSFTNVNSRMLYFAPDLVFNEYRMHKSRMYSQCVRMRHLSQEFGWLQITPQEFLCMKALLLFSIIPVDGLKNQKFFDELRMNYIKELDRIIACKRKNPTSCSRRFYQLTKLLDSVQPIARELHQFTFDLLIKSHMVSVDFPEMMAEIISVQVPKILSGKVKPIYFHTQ
Description: Competitive binding of 3H-DHT to baculovirus/Sf9 generated hAR extracts. Conditions: IC50, concentration at which one half of maximum binding of 1 nM 3H-DHT to hAR is inhibited; one hour at 4° C.; mean of multiple tests. The protocol:
The description below describes how the assay was carried out.
Competitive binding analysis was performed on baculovirus/Sf9 generated hAR extracts in the presence or absence of different concentrations of test agent and a fixed concentration of ^3H-dihydrotestosterone (^3H-DHT) as tracer. This binding assay method is a modification of a protocol previously described (Liao S., et. al. J. Steroid Biochem. 20:11-17 1984). Briefly, progressively decreasing concentrations of compounds are incubated in the presence of hAR extract (Chang et al. P.N.A.S. Vol. 89, pp. […], 1992), hydroxylapatite, and 1 nM^3H-DHT for one hour at 4° C. Subsequently, the binding reactions are washed three times to completely remove excess unbound ^3H-DHT. hAR bound ^3H-DHT levels are determined in the presence of compounds (i.e. competitive binding) and compared to levels bound when no competitor is present (i.e. maximum binding). Compound binding affinity to the hAR is expressed as the concentration of compound at which one half of the maximum binding is inhibited.
Turning to `CC1(C)CNC(=O)C1Oc1ccc(C#N)c(C(F)(F)F)c1` (single isomer, unassigned; (+)) [Example 3, (+)-4-(4,4-Dimethyl-2-oxo-pyrrolidin-3-yloxy)-2-trifluoromethyl-benzonitrile], the IC50 came to 435 nM.
Still for that read-out and setting: as for `CCCN1CC(C)(C)[C@H](Oc2ccc(C#N)c(C(F)(F)F)c2)C1=O` [Example 4B, (−)-4-(1-Propyl-4,4-dimethyl-2-oxo-pyrrolidin-3-yloxy)-2-trifluoromethyl-benzonitrile (E1)], the figure is above 10000 nM; as for `COc1ccc(CN2CC(C)(C)C(Oc3ccc(C#N)c(C(F)(F)F)c3)C2=O)cc1` (stereo not drawn) [Example 7, 4-[1-(4-Methoxy-benzyl)-4,4-dimethyl-2-oxo-pyrrolidin-3-yloxy]-2-trifluoromethyl-benzonitrile], 298 nM; as for `COc1ccccc1CN1CC(C)(C)C(Oc2ccc(C#N)c(C(F)(F)F)c2)C1=O` (stereo not drawn) [Example 10, 4-[1-(2-Methoxy-benzyl)-4,4-dimethyl-2-oxo-pyrrolidin-3-yloxy]-2-trifluoromethyl-benzonitrile], 298 nM.
As to `CCCCCN1CC(C)(C)C(Oc2ccc(C#N)c(C(F)(F)F)c2)C1=O` (stereo not drawn) [Example 31, 4-(4,4-Dimethyl-2-oxo-1-pentyl-pyrrolidin-3-yloxy)-2-trifluoromethyl-benzonitrile], the IC50 came to 268 nM.
Same read-out and setting: under `CCC(CC)CN1CC(C)(C)C(Oc2ccc(C#N)c(C(F)(F)F)c2)C1=O` (stereo not drawn) [Example 33, 4-[1-(2-Ethyl-butyl)-4,4-dimethyl-2-oxo-pyrrolidin-3-yloxy]-2-trifluoromethyl-benzonitrile] stands 478 nM.

Staying with this assay, now noted: concentration at which one half of maximum binding of 1 nM 3H-DHT to hAR is inhibited; one hour at 4° C.; mean of multiple tests; read-out: IC50.
Turning to `CC1(C)CN(C(=O)c2ccccc2)C(=O)C1Oc1ccc(C#N)c(C(F)(F)F)c1` (racemic) [Example 97, (±) 4-{1-Benzoyl-4,4-dimethyl-2-oxo-pyrrolidin-3-yloxy)-2-trifluoromethyl benzonitrile}], the IC50 was found to be 311 nM.
Still for that read-out and setting: under `CCN1CC(C)(C)C(Oc2ccc(C#N)c(C(F)(F)F)c2)C1=O` (stereo not drawn) [Example 21, 4-(1-Ethyl-4,4-dimethyl-2-oxo-pyrrolidin-3-yloxy)-2-trifluoromethyl-benzonitrile] stands 403 nM.
For `CC1(C)CN(Cc2cccc(C(=O)O)c2)C(=O)C1Oc1ccc(C#N)c(C(F)(F)F)c1` (stereo not drawn) [Example 26, 3-[3-(4-Cyano-3-trifluoromethyl-phenoxy)-4,4-dimethyl-2-oxo-pyrrolidin-1-ylmethyl]-benzoic acid], the IC50 was found to be 343 nM.
Still for that read-out and setting: as for `CC1(C)CN(CC2CC2)C(=O)C1Oc1ccc(C#N)c(C(F)(F)F)c1` (stereo not drawn) [Example 32, 4-(1-Cyclopropylmethyl-4,4-dimethyl-2-oxo-pyrrolidin-3-yloxy)-2-trifluoromethyl-benzonitrile], the figure is 420 nM; as for `CC1(C)CN(Cc2cccc(C(F)(F)F)c2)C(=O)C1Oc1ccc(C#N)c(C(F)(F)F)c1` (stereo not drawn) [Example 34, 4-[4,4-Dimethyl-2-oxo-1-(3-trifluoromethyl-benzyl)-pyrrolidin-3-yloxy]-2-trifluoromethyl-benzonitrile], 437 nM; as for `CC1(C)CN(Cc2ccc(SC(F)(F)F)cc2)C(=O)C1Oc1ccc(C#N)c(C(F)(F)F)c1` (stereo not drawn) [Example 36, 4-[4,4-Dimethyl-2-oxo-1-(4-trifluoromethylsulfanyl-benzyl)-pyrrolidin-3-yloxy]-2-trifluoromethyl-benzonitrile], 484 nM.
Still for that read-out and setting: as for `Cc1ccc(Cc2noc(CN3CC(C)(C)C(Oc4ccc(C#N)c(C(F)(F)F)c4)C3=O)n2)cc1` (stereo not drawn) [Example 43, 4-{4,4-Dimethyl-1-[3-(4-methyl-benzyl)-[1,2,4]oxadiazol-5-ylmethyl]-2-oxo-pyrrolidin-3-yloxy}-2-trifluoromethyl-benzonitrile], the figure is 283 nM; as for `CC1(C)CN(Cc2ccc(S(C)(=O)=O)cc2)C(=O)C1Oc1ccc(C#N)c(C(F)(F)F)c1` (stereo not drawn) [Example 44, 4-[1-(4-Methanesulfonyl-benzyl)-4,4-dimethyl-2-oxo-pyrrolidin-3-yloxy]-2-trifluoromethyl-benzonitrile], 346 nM.
Still for that read-out and setting: under `CC1(C)CN(Cc2nc(-c3ccncc3)no2)C(=O)C1Oc1ccc(C#N)c(C(F)(F)F)c1` (stereo not drawn) [Example 49, 4-[4,4-Dimethyl-2-oxo-1-(3-pyridin-4-yl-[1,2,4]oxadiazol-5-ylmethyl)-pyrrolidin-3-yloxy]-2-trifluoromethyl-benzonitrile] stands 214 nM; under `COc1ccccc1-c1nc(CN2CC(C)(C)C(Oc3ccc(C#N)c(C(F)(F)F)c3)C2=O)no1` (stereo not drawn) [Example 51, 4-{1-[5-(2-Methoxy-phenyl)-[1,2,4]oxadiazol-3-ylmethyl]-4,4-dimethyl-2-oxo-pyrrolidin-3-yloxy}-2-trifluoromethyl-benzonitrile], 321 nM; under `CC1(C)CN(CC2CCCCC2)C(=O)C1Oc1ccc(C#N)c(C(F)(F)F)c1` (stereo not drawn) [Example 53, 4-(1-Cyclohexylmethyl-4,4-dimethyl-2-oxo-pyrrolidin-3-yloxy)-2-trifluoromethyl-benzonitrile], 294 nM.
Turning to `Cn1c(CN2CC(C)(C)C(Oc3ccc(C#N)c(C(F)(F)F)c3)C2=O)nc2ccccc21` (stereo not drawn) [Example 55, 4-[4,4-Dimethyl-1-(1-methyl-1H-benzoimidazol-2-ylmethyl)-2-oxo-pyrrolidin-3-yloxy]-2-trifluoromethyl-benzonitrile], the IC50 worked out at 500 nM.
As for `COC(=O)c1ccoc1CN1CC(C)(C)C(Oc2ccc(C#N)c(C(F)(F)F)c2)C1=O` (stereo not drawn) [Example 58, 2-[3-(4-Cyano-3-trifluoromethyl-phenoxy)-4,4-dimethyl-2-oxo-pyrrolidin-1-ylmethyl]-furan-3-carboxylic acid methyl ester], the half-maximal inhibitory concentration (IC50) came out at 313 nM.
For `Cc1onc(-c2ccccc2)c1CN1CC(C)(C)C(Oc2ccc(C#N)c(C(F)(F)F)c2)C1=O` (stereo not drawn) [Example 59, 4-[4,4-Dimethyl-1-(5-methyl-3-phenyl-isoxazol-4-ylmethyl)-2-oxo-pyrrolidin-3-yloxy]-2-trifluoromethyl-benzonitrile], the IC50 amounted to 277 nM.
The same measure, in the same setting: as for `CC1(C)CN(Cc2ccc(-n3cncn3)cc2)C(=O)C1Oc1ccc(C#N)c(C(F)(F)F)c1` (stereo not drawn) [Example 62, 4-[4,4-Dimethyl-2-oxo-1-(4-[1,2,4]triazol-1-yl-benzyl)-pyrrolidin-3-yloxy]-2-trifluoromethyl-benzonitrile], the figure is 293 nM.
Still for that read-out and setting: under `CC1(C)CN(Cc2nc(-c3ccc(C4SCCS4)cc3)no2)C(=O)C1Oc1ccc(C#N)c(C(F)(F)F)c1` (stereo not drawn) [Example 63, 4-{1-[3-(4-[1,3]Dithiolan-2-yl-phenyl)-[1,2,4]oxadiazol-5-ylmethyl]-4,4-dimethyl-2-oxo-pyrrolidin-3-yloxy}-2-trifluoromethyl-benzonitrile] stands 500 nM.
The same measure, in the same setting: as for `CC1(C)CN(CC2CCC2)C(=O)C1Oc1ccc(C#N)c(C(F)(F)F)c1` (stereo not drawn) [Example 64, 4-(1-Cyclobutylmethyl-4,4-dimethyl-2-oxo-pyrrolidin-3-yloxy)-2-trifluoromethyl-benzonitrile], the figure is 254 nM; as for `CC1(C)CN(Cc2nc(-c3cccc([N+](=O)[O-])c3)no2)C(=O)C1Oc1ccc(C#N)c(C(F)(F)F)c1` (stereo not drawn) [Example 67, 4-{4,4-Dimethyl-1-[3-(3-nitro-phenyl)-[1,2,4]oxadiazol-5-ylmethyl]-2-oxo-pyrrolidin-3-yloxy}-2-trifluoromethyl-benzonitrile], 437 nM.
